The text below walks through data of PMC11302729, “Repurposing Hsp90 inhibitors as antimicrobials targeting two-component systems identifies compounds leading to loss of bacterial membrane integrity” (Microbiology Spectrum, 2024).

Converted amounts (≈) assume the structure as drawn.

Usually MIC stands for the lowest concentration found to suppress growth. Broadly, the IC50 is the midpoint of a concentration-inhibition curve. Read a high IC50 as a need for much substance.

The subject of the first test is Escherichia coli D21f2 with a truncated LPS barrier. The experiment in a line: MIC (microdilution) against E. coli D21f2. The class given is cell-based. Particulars: read-out: MIC E coli D21f2. In short, it runs like this: (§1)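 Tested on E. coli JW5503 (ΔtolC, no TolC efflux) and D21f2 (defective LPS inner core, more permeable outer membrane) per EUCAST microdilution in Mueller-Hinton broth, twofold dilutions 50 to 0.39 µg/mL, 1:100-diluted overnight culture. 18 h at 37°C. MIC = lowest concentration with no growth by OD600.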
A general note: Broth dilution looks for growth in wells or tubes with falling amounts of substance.
With `COc1ccc(-c2c(C(F)(F)F)n[nH]c2-c2ccc(O)cc2O)cc1` [DPP-12], the MIC is over 50 µg/mL.
The same measure, in the same setting: then `COc1ccc(-c2[nH]nc(C(F)(F)F)c2-c2ccccc2)c(O)c1` [DPP-2], with 50 µg/mL (≈ 150 µM).
Take `COc1ccc(-c2[nH]nc(C(F)(F)F)c2-c2ccc(Cl)cc2)c(O)c1` [DPP-6]: the MIC came to 25 µg/mL (≈ 67.8 µM).
On the same count and under the same terms, then `Oc1ccc(-c2n[nH]c(C(F)(F)F)c2-c2ccc(Cl)cc2)c(O)c1` [DPP-5], with 50 µg/mL (≈ 141 µM).
As to `CCOc1ccc(-c2[nH]nc(C(F)(F)F)c2-c2ccc(Cl)cc2)c(O)c1` [DPP-7], the MIC amounted to 25 µg/mL (≈ 65.3 µM).
Turning to `COc1ccc(-c2c(C(F)(F)F)n[nH]c2-c2ccc(OC)cc2O)cc1` [DPP-13], the MIC was over 50 µg/mL.

The test is the same for the next values; noted with them: read-out: MIC E. coli D21f2.
`COc1ccc(-c2c(C(F)(F)F)n[nH]c2-c2ccc(O)cc2O)cc1` [DPP-12]: the minimal inhibitory concentration (MIC) is over 250 µg/mL.
Same read-out and setting: with `COc1ccc(-c2[nH]nc(C(F)(F)F)c2-c2ccccc2)c(O)c1` [DPP-2] the figure was 50 µg/mL (≈ 150 µM); with `COc1ccc(-c2[nH]nc(C(F)(F)F)c2-c2ccc(Cl)cc2)c(O)c1` [DPP-6], 25 µg/mL (≈ 67.8 µM); with `Oc1ccc(-c2n[nH]c(C(F)(F)F)c2-c2ccc(Cl)cc2)c(O)c1` [DPP-5], 50 µg/mL (≈ 141 µM).
The same measure, in the same setting: then `CCOc1ccc(-c2[nH]nc(C(F)(F)F)c2-c2ccc(Cl)cc2)c(O)c1` [DPP-7], with 25 µg/mL (≈ 65.3 µM); and `COc1ccc(-c2c(C(F)(F)F)n[nH]c2-c2ccc(OC)cc2O)cc1` [DPP-13], with over 250 µg/mL.

The next test concerns Pasteurella haemolytica ATCC 29701. The experiment in a line: MIC (microdilution) against P. haemolytica. The class given is cell-based. Conditions: Mannheimia haemolytica, ATCC29701, read-out: MIC P. haemolytica, Table 1. In short, it runs like this:
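EUCAST broth microdilution in Mueller-Hinton broth, twofold compound dilutions from 50 to 0.39 µg/mL, inoculum a 1:100 dilution of overnight culture. Incubated 18 h at 37°C; MIC taken as lowest concentration with no growth by OD600.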
For the compound `COc1ccc(-c2c(C(F)(F)F)n[nH]c2-c2ccc(O)cc2O)cc1` [DPP-12], the MIC came out at 50 µg/mL (≈ 143 µM).
Still for that read-out and setting: then `COc1ccc(-c2[nH]nc(C(F)(F)F)c2-c2ccccc2)c(O)c1` [DPP-2], with 50 µg/mL (≈ 150 µM).
Still for that read-out and setting: with `COc1ccc(-c2[nH]nc(C(F)(F)F)c2-c2ccc(Cl)cc2)c(O)c1` [DPP-6] the figure was 12.5 µg/mL (≈ 33.9 µM); with `CCOc1ccc(-c2[nH]nc(C(F)(F)F)c2-c2ccc(Cl)cc2)c(O)c1` [DPP-7], 25 µg/mL (≈ 65.3 µM).
Same read-out and setting: then `COc1ccc(-c2c(C(F)(F)F)n[nH]c2-c2ccc(OC)cc2O)cc1` [DPP-13], with over 250 µg/mL.

Staying with this test, now noted: Mannheimia haemolytica, ATCC29701, read-out: MIC P. haemolytica, Table ST1.
For the compound `COc1ccc(-c2c(C(F)(F)F)n[nH]c2-c2ccc(O)cc2O)cc1` [DPP-12], the MIC worked out at 62.5 µg/mL (≈ 178 µM).
Turning to `COc1ccc(-c2[nH]nc(C(F)(F)F)c2-c2ccccc2)c(O)c1` [DPP-2], the MIC was 50 µg/mL (≈ 150 µM).
On the same count and under the same terms, then `COc1ccc(-c2[nH]nc(C(F)(F)F)c2-c2ccc(Cl)cc2)c(O)c1` [DPP-6], with 12.5 µg/mL (≈ 33.9 µM).
Same read-out and setting: with `CCOc1ccc(-c2[nH]nc(C(F)(F)F)c2-c2ccc(Cl)cc2)c(O)c1` [DPP-7] the figure was 25 µg/mL (≈ 65.3 µM).
On the same count and under the same terms, with `COc1ccc(-c2c(C(F)(F)F)n[nH]c2-c2ccc(OC)cc2O)cc1` [DPP-13] the figure was over 250 µg/mL.

Staying with this test, now noted: Mannheimia haemolytica, ATCC29701; Table 1; read-out: MIC P. haemolytica.
For the compound `Oc1ccc(-c2n[nH]c(C(F)(F)F)c2-c2ccc(Cl)cc2)c(O)c1` [DPP-5], the MIC was determined as 12.5 µg/mL (≈ 35.2 µM).

The same test, now with this note: Table ST1.
Turning to `Oc1ccc(-c2n[nH]c(C(F)(F)F)c2-c2ccc(Cl)cc2)c(O)c1` [DPP-5], the “MIC P. haemolytica” value worked out at 12.5 µg/mL (≈ 35.2 µM).

The test system of the next test is Escherichia coli JW5503 (ΔtolC). Nature of the test: MIC (microdilution) against E. coli JW5503. It counts as cell-based. Conditions: Escherichia coli, read-out: MIC E. coli JW5503. The method, boiled down: as §1
Regarding `COc1ccc(-c2c(C(F)(F)F)n[nH]c2-c2ccc(O)cc2O)cc1` [DPP-12], the MIC came to 12.5 µg/mL (≈ 35.7 µM).
Take `COc1ccc(-c2[nH]nc(C(F)(F)F)c2-c2ccccc2)c(O)c1` [DPP-2]: the MIC is 6.25 µg/mL (≈ 18.7 µM).
As for `COc1ccc(-c2[nH]nc(C(F)(F)F)c2-c2ccc(Cl)cc2)c(O)c1` [DPP-6], the minimum inhibitory concentration (MIC) amounted to 3.12 µg/mL (≈ 8.46 µM).
On the same count and under the same terms, then `Oc1ccc(-c2n[nH]c(C(F)(F)F)c2-c2ccc(Cl)cc2)c(O)c1` [DPP-5], with 3.12 µg/mL (≈ 8.8 µM); and `CCOc1ccc(-c2[nH]nc(C(F)(F)F)c2-c2ccc(Cl)cc2)c(O)c1` [DPP-7], with 3.12 µg/mL (≈ 8.15 µM).
Same read-out and setting: with `COc1ccc(-c2c(C(F)(F)F)n[nH]c2-c2ccc(OC)cc2O)cc1` [DPP-13] the figure was 12.5 µg/mL (≈ 34.3 µM).

The same test, now with this note: Table ST1; ΔtolC mutant.
`COc1ccc(-c2c(C(F)(F)F)n[nH]c2-c2ccc(O)cc2O)cc1` [DPP-12]: the “MIC E. coli JW5503” value amounted to 12.5 µg/mL (≈ 35.7 µM).
Still for that read-out and setting: then `COc1ccc(-c2[nH]nc(C(F)(F)F)c2-c2ccccc2)c(O)c1` [DPP-2], with 6.25 µg/mL (≈ 18.7 µM); and `COc1ccc(-c2[nH]nc(C(F)(F)F)c2-c2ccc(Cl)cc2)c(O)c1` [DPP-6], with 3.12 µg/mL (≈ 8.46 µM).
Regarding `Oc1ccc(-c2n[nH]c(C(F)(F)F)c2-c2ccc(Cl)cc2)c(O)c1` [DPP-5], the “MIC E. coli JW5503” value amounted to 3.12 µg/mL (≈ 8.8 µM).
On the same count and under the same terms, then `CCOc1ccc(-c2[nH]nc(C(F)(F)F)c2-c2ccc(Cl)cc2)c(O)c1` [DPP-7], with 3.12 µg/mL (≈ 8.15 µM); and `COc1ccc(-c2c(C(F)(F)F)n[nH]c2-c2ccc(OC)cc2O)cc1` [DPP-13], with 12.5 µg/mL (≈ 34.3 µM).

Another test deals with T1, E. coli EnvZ (Escherichia coli, UniProt P0AEJ4).
T1 construct: Cytoplasmic domains from S. aureus PhoR and E. coli EnvZ; His6; made in house; host or cells: E. coli RIL
T1 sequence (P0AEJ4 180-450): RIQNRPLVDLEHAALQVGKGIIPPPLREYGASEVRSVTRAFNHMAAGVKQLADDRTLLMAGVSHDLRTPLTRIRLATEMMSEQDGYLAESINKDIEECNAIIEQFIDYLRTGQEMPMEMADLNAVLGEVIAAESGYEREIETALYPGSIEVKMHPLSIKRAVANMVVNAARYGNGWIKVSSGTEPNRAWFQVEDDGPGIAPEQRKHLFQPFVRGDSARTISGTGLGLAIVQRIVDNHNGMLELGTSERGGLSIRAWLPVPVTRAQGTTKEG
The experiment in a line: HK autophosphorylation inhibition, EnvZ. It counts as biochemical. Particulars: bound from first screening at 2 mM. Here is the method: Cytoplasmic domains from S. aureus PhoR and E. coli EnvZ as well the CA domain of Thermotoga maritima CheA were cloned in pNIC28-Bsa4 ([54]) plasmid containing His6-tag expressed in E. coli RIL and purified as previously described ([21], [55], [56]) using His-affinity and size exclusion chromatography. Briefly, E. coli RIL strains carrying the appropriate plasmid were grown in 1 L Luria broth (LB) (Merck Millipore) supplemented with kanamycin (100 µg/mL) with shaking (200 r.p.m.) at 37°C. When OD600 reached 0.5, 1 mM isopropyl-ß-D-1-thiogalactopyranoside (IPTG) was added to induce protein expression and cells were grown for 3 more hours. Cells were harvested by centrifugation (4,000 g, 4°C), resuspended in 40 mL buffer A (50 mM Tris-HCl pH 8.0, 0.5 M NaCl, 10% glycerol, and 1 mM phenylmethanesulfonyl fluoride), sonicated (4°C, 5 min with pulses of 15 sec at intervals of 1 min), and centrifuged (11,000 g, 4°C, 60 min). Supernatant was passed through a 5-mL HisTrap HP column (GE Healthcare) equilibrated in buffer A using the AKTA system (GE Healthcare). His-column was washed with buffer A (80 mL), and a linear gradient of imidazole (range 0 to 0.25 M) in buffer A was applied. The purest fractions evaluated by SDS-PAGE were collected, concentrated by ultrafiltration in a Amicon Ultra-15 (10- or 30-kDa exclusion) (Merck Millipore), and further purified by gel filtration using Superdex 200 column (GE Healthcare), equilibrated in buffer B (50 mM TrisHCl, pH 8.0, 0.2 M NaCl, and 5% glycerol). Purified proteins were then concentrated using ultrafiltration and stored at −80°C.
Autophosphorylation inhibition assays were performed in kinase assay buffer [100 mM Tris-HCl (pH 8.0), 5 mM MgCl2, 10 mM DTT], containing 5 µg of purified HK and 10 mM ATP for 30 min at 25°C. The reaction was stopped by adding gel loading buffer containing 16% SDS before loading the reaction on a 12% SDS-PAGE. […] To detect autophosphorylation, the gel was transferred to a nitrocellulose membrane (GE Healthcare) at 100 V in the transfer buffer (25 mM Tris, 192 mM Glycine, 10% Methanol). The membrane was then blocked using Tris-buffered saline solution with 0.1% vol/vol Tween 20 (TBS-T) supplied with 5% bovine serum albumin. The phosphorylated histidine was detected by western blotting by then incubating the membrane for 60 min with 1:1,000 anti-N1-phosphohistidine antibody (Merck Millipore) in TBS-T followed by a washing step for 30 min with TBS-T and a final 60-min incubation with 1:10,000 horseradish […] anti-rabbit IgG (Promega) in TBS-T. Chemiluminescent reaction was measured using Pierce ECL immunoblotting substrate (Thermo Scientific) in a LAS 3000 image analyzer (Fujifilm Life Science, Tokyo, Japan) followed by densitometric analysis using Multi Gauge image-analysis software (Fujifilm Life Science, Tokyo, Japan). The inhibitor concentrations required to halve the chemiluminescence intensity (IC50) were determined using Prism 4.1 (GraphPad Software, San Diego, CA, USA).
`COc1ccc(-c2[nH]nc(C(F)(F)F)c2-c2ccccc2)c(O)c1` [DPP-2] returned an IC50 of under 2000 µM.
Compound `CCOc1ccc(-c2[nH]nc(C(F)(F)F)c2-c2ccc(Cl)cc2)c(O)c1` [DPP-7] returned an IC50 of under 2000 µM.

The test is the same for the next values; noted with them: ± SD, n = 2; 10 mM ATP.
Compound `COc1ccc(-c2c(C(F)(F)F)n[nH]c2-c2ccc(O)cc2O)cc1` [DPP-12] registered an IC50 of 427 ± 9.1 µM.
Still for that read-out and setting: with `COc1ccc(-c2[nH]nc(C(F)(F)F)c2-c2ccc(Cl)cc2)c(O)c1` [DPP-6] the figure was 98 ± 11.8 µM; with `Oc1ccc(-c2n[nH]c(C(F)(F)F)c2-c2ccc(Cl)cc2)c(O)c1` [DPP-5], 117 ± 6.3 µM; with `COc1ccc(-c2c(C(F)(F)F)n[nH]c2-c2ccc(OC)cc2O)cc1` [DPP-13], 175 ± 10.1 µM.
